Compound: O=C(NCCCNc1nc(Nc2cccc(NC(=O)N3CCCC3)c2)ncc1I)c1cccs1 [BX 795] + CC(C)C[C@H](NC(=O)[C@H](Cc1ccccc1)NC(=O)c1cnccn1)B(O)O [Bortezomib] (partner 0.002 µM)
Test: relative viability (nuclei count vs DMSO), 5 days (fraction); higher = more cells survive
Procedure, shortened: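 Lung cancer cell lines were seeded in 1536-well plates and dosed by pin tool the next day, with either a single drug or a fixed anchor-drug dose combined with five library-drug doses (not always all listed) spaced in √10 steps. Five days later, one step fixed the cells and stained their nuclei (final 0.05% Triton X-100, 1% formaldehyde, 1 ug/ml Hoechst), and nuclei were counted on 4× images. Relative viability is the nuclei count in treated wells divided by the count in vehicle wells, and each value is the median of duplicate plates.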

| Cell Line | relative viability (first compound 0.04 µM) | relative viability (first compound 0.1265 µM) | relative viability (first compound 0.4 µM) | relative viability (first compound 1.265 µM) |
| --- | --- | --- | --- | --- |
| 201T | 1.12 | 1.08 | 1.18 | 1.11 |
| A-427 | 0.972 | 0.964 | 1.02 | 0.866 |
| ABC-1 | 0.392 | 0.299 | 0.332 | 0.291 |
| BEN | 0.805 | 0.783 | 0.842 | 0.873 |
| CAL-12T | 0.954 | 0.929 | 1.04 | 0.623 |
| COR-L23 | 1.1 | 1.02 | 0.916 | 0.979 |
| COR-L 105 | 0.586 | 0.577 | 0.613 | 0.327 |
| ChaGo-K-1 | 1.02 | 0.916 | 0.977 | 0.91 |
| EKVX | 1.15 | 1.09 | 0.99 | 0.886 |
| EMC-BAC-2 | 1.08 | 1.08 | 1.13 | 1.06 |
| EPLC-272H | 1.02 |  | 0.857 | 0.824 |
| H3255 | 0.731 | 0.816 | 1.11 | 0.66 |
| HARA | 1.12 | 1.03 | 1.1 | 1.06 |
| HCC-15 | 0.969 | 1.02 | 0.99 | 0.778 |
| HCC-44 | 0.818 | 0.929 | 1.1 | 0.772 |
| HCC-78 | 0.735 | 0.487 | 0.438 | 0.41 |
| HCC-366 | 1.08 | 1.1 | 0.866 | 1.09 |
| HCC-827 | 1.01 | 1.01 | 1.06 | 0.986 |
| HOP-62 | 0.51 | 0.59 | 0.615 | 0.682 |
| IA-LM | 0.655 | 0.841 | 0.974 | 0.54 |
| LC-2-ad | 1.11 | 1.01 | 1.06 | 0.968 |

| Cell Line | relative viability (first compound 0.04 µM) | relative viability (first compound 0.1265 µM) | relative viability (first compound 0.4 µM) | relative viability (first compound 1.265 µM) |
| --- | --- | --- | --- | --- |
| LCLC-97TM1 | 0.563 | 0.527 | 0.954 | 0.417 |
| LCLC-103H | 1 | 1.1 | 1.15 | 0.911 |
| LOU-NH91 | 0.528 | 0.498 | 0.562 | 0.507 |
| LU99A | 1.23 | 1.02 | 0.8 | 0.773 |
| LXF-289 | 0.981 | 1 | 0.977 | 0.967 |
| NCI-H23 | 1.05 | 1.31 | 0.987 | 1.26 |
| NCI-H322M | 1.39 | 1.26 | 1.44 | 1.39 |
| NCI-H441 | 0.393 | 0.541 | 0.747 | 0.577 |
| NCI-H460 | 1.1 | 1.27 | 1.08 | 1.09 |
| NCI-H520 | 0.355 | 0.36 | 0.356 | 0.308 |
| NCI-H596 | 0.947 | 0.875 | 0.999 | 1.08 |
| NCI-H647 | 0.913 | 1.11 | 0.801 | 0.3 |
| NCI-H650 | 0.792 | 0.761 | 1.06 | 0.432 |
| NCI-H661 | 0.767 | 0.806 | 0.695 | 0.706 |
| NCI-H727 | 1.05 | 0.962 | 0.926 | 0.739 |
| NCI-H838 | 0.841 | 0.792 | 0.719 | 0.401 |
| NCI-H1355 | 1.23 | 1.22 | 1.31 | 1.22 |
| NCI-H1437 | 0.543 | 0.493 | 0.533 | 0.415 |
| NCI-H1650 | 0.219 | 0.2 | 0.189 | 0.193 |
| NCI-H1651 | 0.925 | 0.961 | 1.04 | 0.971 |
| NCI-H1666 | 0.653 | 0.806 | 0.913 | 0.688 |

| Cell Line | relative viability (first compound 0.04 µM) | relative viability (first compound 0.1265 µM) | relative viability (first compound 0.4 µM) | relative viability (first compound 1.265 µM) |
| --- | --- | --- | --- | --- |
| NCI-H1734 | 0.965 | 1.03 | 0.914 | 0.545 |
| NCI-H1755 | 1.01 | 0.963 | 1.05 | 0.758 |
| NCI-H1792 | 0.963 | 1.08 | 1.12 | 0.954 |
| NCI-H1915 | 1.07 | 1.01 | 0.974 | 0.953 |
| NCI-H1975 | 0.332 | 0.414 | 0.392 | 0.249 |
| NCI-H1993 | 1.15 | 1.26 | 1.05 | 1.02 |
| NCI-H2009 | 0.97 | 0.924 | 0.996 | 0.804 |
| NCI-H2023 | 0.932 | 0.965 | 0.433 | 0.675 |
| NCI-H2085 | 1.04 | 0.98 | 1.02 | 0.999 |
| NCI-H2087 | 0.952 | 0.898 | 1.18 | 0.719 |
| NCI-H2126 | 1.08 | 1.07 | 1.21 | 1.07 |
| NCI-H2228 | 1.03 | 1.11 | 0.907 | 0.308 |
| NCI-H2347 | 1.19 | 1.05 | 1.23 | 0.934 |
| NCI-H2405 | 0.965 | 1.03 | 0.91 | 0.941 |
| NCI-H3122 | 1.02 | 1.04 | 1.04 | 0.986 |
| PC-3 [JPC-3] | 0.768 | 0.822 | 0.86 | 0.861 |
| PC-14 | 0.866 | 0.978 | 0.875 | 0.582 |
| RERF-LC-KJ | 1.09 | 1.23 | 1.14 | 1.02 |
| SK-LU-1 | 0.902 | 1.12 |  | 0.708 |
| SW 1573 | 1.11 | 1.21 | 1.29 | 0.877 |
| UMC-11 | 0.678 | 0.983 | 0.847 | 0.36 |
